For one compound, PR level, % of control results are on record in ChEMBL document CHEMBL1123983, “Bis(4-hydroxyphenyl)[2-(phenoxysulfonyl)phenyl]methane: isolation and structure elucidation of a novel estrogen from commercial preparations of phenol red (phenolsulfonphthalein)” (J Med Chem, 1988).

The assay has as its target Estrogen receptor (Homo sapiens) (UniProt Q92731+P03372). In words: Estrogen-related induction of progesterone receptor expression in MCF-7 cells at 10e-6 M. In kind it is cell-based. To be noted: MCF7.

As to `O=S(=O)(Oc1ccccc1)c1ccccc1C(c1ccc(O)cc1)c1ccc(O)cc1`, the PR level, % of control turned out to be 1680%.
